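48-hour exposure; five concentrations; linearly interpolated endpoints. GI50: concentration for 50% inhibition of growth.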 Activity calls are given as the source filed them. Rule as the data show it: active = GI50 up to about 1.1 µM and inactive = higher.
What was measured:
Experiment in all cases: NCI-60 cell line screen, 48 h
786-0 = system: 786-0
A498 = system: A498
A549 = system: A549
ACHN = system: ACHN
BT-549 = system: BT-549
CAKI-1 = system: CAKI-1
CCRF-CEM = system: CCRF-CEM
COLO 205 = system: COLO 205
DU-145 = system: DU-145
EKVX = system: EKVX
HCT-116 = system: HCT-116
HCT-15 = system: HCT-15
HL-60 = system: HL-60
HOP-62 = system: HOP-62
HOP-92 = system: HOP-92
HT-29 = system: HT-29
Hs-578T = system: Hs-578T
IGROV-1 = system: IGROV-1
K562 = system: K562
KM12 = system: KM12
LOX IMVI = system: LOX IMVI
M14 = system: M14
MCF7 = system: MCF7
MDA-MB-231 = system: MDA-MB-231
MDA-MB-435 = system: MDA-MB-435
MDA-N = system: MDA-N
MOLT-4 = system: MOLT-4
Malme-3M = system: Malme-3M
NCI-H226 = system: NCI-H226
NCI-H23 = system: NCI-H23
NCI-H460 = system: NCI-H460
NCI-H522 = system: NCI-H522
NCI/ADR-RES = system: NCI/ADR-RES
OVCAR-3 = system: OVCAR-3
OVCAR-4 = system: OVCAR-4
OVCAR-5 = system: OVCAR-5
OVCAR-8 = system: OVCAR-8
PC-3 = system: PC-3
RPMI-8226 = system: RPMI-8226
RXF 393 = system: RXF 393
SF-268 = system: SF-268
SF-295 = system: SF-295
SF-539 = system: SF-539
SK-MEL-28 = system: SK-MEL-28
SK-MEL-2 = system: SK-MEL-2
SK-MEL-5 = system: SK-MEL-5
SK-OV-3 = system: SK-OV-3
SN12C = system: SN12C
SNB-19 = system: SNB-19
SNB-75 = system: SNB-75
SR = system: SR
SW-620 = system: SW-620
T47D = system: T47D
TK-10 = system: TK-10
U-251 = system: U-251
UACC-257 = system: UACC-257
UACC-62 = system: UACC-62
UO-31 = system: UO-31
HCC 2998 = system: HCC 2998

Measured: GI50

O=[N+]([O-])c1ccc(N2CCC(CCCC3CCN(c4ccc([N+](=O)[O-])cc4[N+](=O)[O-])CC3)CC2)c([N+](=O)[O-])c1
inactive: 786-0 14.5 µM | A498 17 µM | A549 16.4 µM | ACHN 16.1 µM | BT-549 24.4 µM | CAKI-1 19 µM | CCRF-CEM 13.7 µM | COLO 205 14.2 µM | DU-145 21.7 µM | EKVX 15.8 µM | HCT-116 26.5 µM | HL-60 15.4 µM | HOP-62 15.5 µM | HOP-92 11 µM | HT-29 8.11 µM | Hs-578T 34.8 µM | IGROV-1 11.1 µM | K562 22.3 µM | KM12 16.7 µM | LOX IMVI 14.8 µM | M14 13.2 µM | MCF7 14.2 µM | MDA-MB-231 18.7 µM | MDA-MB-435 13.9 µM | MDA-N 16.1 µM | MOLT-4 23.3 µM | Malme-3M 19.1 µM | NCI-H226 25.6 µM | NCI-H23 21.2 µM | NCI-H460 14.3 µM | NCI-H522 18.2 µM | NCI/ADR-RES 20.7 µM | OVCAR-3 18 µM | OVCAR-4 12.9 µM | OVCAR-5 16.4 µM | OVCAR-8 16.1 µM | PC-3 15.8 µM | RPMI-8226 13.4 µM | RXF 393 15.3 µM | SF-268 20 µM | SF-295 17.4 µM | SF-539 18.4 µM | SK-MEL-28 12.7 µM | SK-MEL-2 16.9 µM | SK-MEL-5 15.1 µM | SK-OV-3 18.5 µM | SN12C 32.1 µM | SNB-19 16.1 µM | SNB-75 14.7 µM | SR 27 µM | SW-620 19.9 µM | T47D 5.64 µM | TK-10 16.9 µM | U-251 14.8 µM | UACC-257 14.6 µM | UACC-62 11.9 µM | UO-31 11.9 µM
18.3 µM: HCT-15

c1ccc(N/N=N/c2ccc(-c3nc4ccccc4[nH]3)cc2)nc1
15.8 µM: HCT-15
inactive: 786-0 14.4 µM | A498 > 100 µM | A549 19.2 µM | ACHN 16.6 µM | BT-549 37.5 µM | CAKI-1 27.9 µM | CCRF-CEM 2.64 µM | COLO 205 27 µM | DU-145 13.2 µM | EKVX 17.3 µM | HCT-116 7.11 µM | HL-60 50.8 µM | HOP-62 16.6 µM | HOP-92 17.3 µM | HT-29 21 µM | Hs-578T 19.8 µM | IGROV-1 13.2 µM | K562 7.31 µM | KM12 13.6 µM | LOX IMVI 18.5 µM | M14 37.4 µM | MCF7 11.3 µM | MDA-MB-231 12.6 µM | MDA-MB-435 21.6 µM | MDA-N 16.7 µM | MOLT-4 4.43 µM | Malme-3M 15.6 µM | NCI-H226 26.3 µM | NCI-H23 31.8 µM | NCI-H460 15.2 µM | NCI-H522 16.8 µM | NCI/ADR-RES 30.3 µM | OVCAR-3 15 µM | OVCAR-4 17.8 µM | OVCAR-5 26.3 µM | OVCAR-8 21.7 µM | PC-3 18.1 µM | RPMI-8226 2.05 µM | RXF 393 16.4 µM | SF-295 19.2 µM | SF-539 17.1 µM | SK-MEL-28 20.7 µM | SK-MEL-2 27 µM | SK-MEL-5 27.6 µM | SK-OV-3 14.7 µM | SN12C 15.3 µM | SNB-19 20.8 µM | SNB-75 21.6 µM | SR 2.12 µM | SW-620 17.8 µM | T47D 12.7 µM | TK-10 19.6 µM | U-251 16.5 µM | UACC-257 23.2 µM | UO-31 19.4 µM

Cc1cc2c(c(C(=O)NCC(=O)O)c1)Oc1c(cc(C)cc1C(=O)NCC(=O)O)S2
inactive: 786-0 > 100 µM | A549 > 100 µM | ACHN > 100 µM | BT-549 > 100 µM | CAKI-1 > 100 µM | CCRF-CEM > 100 µM | COLO 205 > 100 µM | DU-145 > 100 µM | EKVX > 100 µM | HCC 2998 > 100 µM | HCT-116 > 100 µM | HOP-62 > 100 µM | HOP-92 > 100 µM | HT-29 > 100 µM | Hs-578T > 100 µM | IGROV-1 > 100 µM | K562 > 100 µM | KM12 > 100 µM | LOX IMVI > 100 µM | M14 > 100 µM | MCF7 > 100 µM | MDA-MB-231 > 100 µM | MDA-MB-435 > 100 µM | MDA-N > 100 µM | MOLT-4 > 100 µM | Malme-3M > 100 µM | NCI-H226 > 100 µM | NCI-H23 > 100 µM | NCI-H522 > 100 µM | NCI/ADR-RES > 100 µM | OVCAR-3 > 100 µM | OVCAR-4 > 100 µM | OVCAR-5 > 100 µM | OVCAR-8 > 100 µM | PC-3 > 100 µM | RPMI-8226 > 100 µM | RXF 393 > 100 µM | SF-268 > 100 µM | SF-295 > 100 µM | SF-539 > 100 µM | SK-MEL-28 > 100 µM | SK-MEL-2 > 100 µM | SK-OV-3 > 100 µM | SN12C > 100 µM | SNB-19 > 100 µM | SNB-75 > 100 µM | SR > 100 µM | SW-620 > 100 µM | T47D > 100 µM | TK-10 > 100 µM | U-251 > 100 µM | UACC-257 > 100 µM | UACC-62 > 100 µM
> 100 µM: HCT-15

From ChEMBL document CHEMBL1201862, “PubChem BioAssay data set” (2004)
